The target in this assay is human EP4 receptor (Homo sapiens (Human), UniProt P35408). Description: EP4 antagonistic activity measurement experiment using prostanoid receptor subtype expressing cells. Format: cell-based. As to conditions: CHO cells expressing human EP4 receptor; inhibition of cAMP production by PGE2 10 nM; 30 minutes at room temperature. As for the experimental part: CHO cells expressing human EP4 receptor subtypes were prepared according to the methods of Nishigaki et al. (Non-Patent Literature 4), and used for experiment. Cells cultured to subconfluent were detached, and suspended in an assay medium (MEM containing 1 mmol/L IBMX, 1% HSA) such that a concentration became 1×10^6 cells/mL. For reaction, PGE2 was added to the cell suspension (25 μL) in a final concentration of 10 nmol/L, either alone or as a 25-μL PGE2 solution containing the test compound. After 30 minutes of reaction at room temperature, the amount of cAMP in the cells was quantified according to the method in the descriptions of the cAMP assay kit (CISBIO).
Chain of human EP4 receptor (P35408 whole entry): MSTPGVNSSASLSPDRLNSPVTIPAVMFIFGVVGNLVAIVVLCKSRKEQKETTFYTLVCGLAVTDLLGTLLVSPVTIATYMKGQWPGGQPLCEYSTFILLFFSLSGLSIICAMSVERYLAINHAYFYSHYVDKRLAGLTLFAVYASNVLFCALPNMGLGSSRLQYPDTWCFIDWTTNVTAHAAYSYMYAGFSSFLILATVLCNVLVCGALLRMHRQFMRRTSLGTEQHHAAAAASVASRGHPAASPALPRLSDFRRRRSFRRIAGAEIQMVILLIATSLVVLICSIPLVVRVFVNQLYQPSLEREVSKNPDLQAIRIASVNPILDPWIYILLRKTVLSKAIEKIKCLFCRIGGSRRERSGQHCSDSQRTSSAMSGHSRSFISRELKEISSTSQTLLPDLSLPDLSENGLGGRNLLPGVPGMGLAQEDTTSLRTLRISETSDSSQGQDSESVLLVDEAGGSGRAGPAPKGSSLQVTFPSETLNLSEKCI
Note here that the antagonistic effect (IC50 value) of the test compound was calculated as a value that represents an inhibition rate against a reaction with PGE2 alone at 10 nM, a concentration that produces a submaximal cAMP producing effect.

In patent US11479550B2, “EP4 antagonist” (ONO PHARMACEUTICAL CO., LTD., priority 2017, dated 2022) one finds IC50 data, which are given here for 24 compounds.

The IC50 is the concentration that gives 50% inhibition. A low value points to higher potency.

The compound `CNC(=O)c1ccc2c(C)cn(C(C)C(=O)Nc3cc(Cn4cc(C)c(C)n4)ccc3CCCC(=O)O)c2c1` (single isomer, unassigned) [Example 2-6(2), 4-{4-[(3,4-dimethyl-1H-pyrazol-1-yl)methyl]-2-({2-[3-methyl-6-(methylcarbamoyl)-1H-indol-1-yl]propanoyl}amino)phenyl}butanoic acid] displayed an IC50 of 1.2 nM.

The compound `CNC(=O)c1ccc2c(C)cn(C(C)C(=O)Nc3cc(Cn4nc(C)cc4C(F)(F)F)ccc3CCCC(=O)O)c2c1` (single isomer, unassigned) [Example 2-27(4), 4-[2-({2-[3-methyl-6-(methylcarbamoyl)-1H-indol-1-yl]propanoyl}amino)-4-{[3-methyl-5-(trifluoromethyl)-1H-pyrazol-1-yl]methyl}phenyl]butanoic acid] showed an IC50 of 1.8 nM.

In turn, `CCNC(=O)c1ccc2c(C)cn(C(C)C(=O)Nc3cc(Cn4cc(C)cn4)ccc3CCCC(=O)O)c2c1` (single isomer, unassigned) [Example 3-3(2), 4-{2-({2-[6-(ethylcarbamoyl)-3-methyl-1H-indol-1-yl]propanoyl}amino)-4-[(4-methyl-1H-pyrazol-1-yl)methyl]phenyl}butanoic acid] registered an IC50 of 0.9 nM.

Compound `CCCNC(=O)c1ccc2c(C)cn(C(C)C(=O)Nc3cc(Cn4cc(C)cn4)ccc3CCCC(=O)O)c2c1` (single isomer, unassigned) [Example 3-5(2), 4-{2-({2-[3-methyl-6-(propylcarbamoyl)-1H-indol-1-yl]propanoyl}amino)-4-[(4-methyl-1H-pyrazol-1-yl)methyl]phenyl}butanoic acid] showed an IC50 of 2.1 nM.

Turning to `Cc1cnn(Cc2ccc(CCCC(=O)O)c(NC(=O)C(C)n3cc(C)c4ccc(C(=O)NC(C)C)cc43)c2)c1` (single isomer, unassigned) [Example 3-7(2), 4-{2-({2-[6-(isopropylcarbamoyl)-3-methyl-1H-indol-1-yl]propanoyl}amino)-4-[(4-methyl-1H-pyrazol-1-yl)methyl]phenyl}butanoic acid], inhibition was half-maximal at 1.7 nM (IC50).

For the compound `Cc1cnn(Cc2ccc(CCCC(=O)O)c(NC(=O)C(C)n3cc(C)c4ccc(C(=O)N(C)C)cc43)c2)c1` (single isomer, unassigned) [Example 3-11(2), 4-{2-({2-[6-(dimethylcarbamoyl)-3-methyl-1H-indol-1-yl]propanoyl}amino)-4-[(4-methyl-1H-pyrazol-1-yl)methyl]phenyl}butanoic acid], half-maximal inhibition (IC50) was put at 4.6 nM.

As for `Cc1cnn(Cc2ccc(CCCC(=O)O)c(NC(=O)C(C)n3cc(C)c4ccc(C(=O)NCC5CC5)cc43)c2)c1` (single isomer, unassigned) [Example 3-20(2), 4-{2-[(2-{6-[(cyclopropylmethyl)carbamoyl]-3-methyl-1H-indol-1-yl}propanoyl)amino]-4-[(4-methyl-1H-pyrazol-1-yl)methyl]phenyl}butanoic acid], it took 1.4 nM to reach half-maximal inhibition (IC50).

`CNC(=O)c1ccc2c(C)cn(C(C)C(=O)Nc3cc(Cn4cnc(C5CC5)n4)ccc3CCCC(=O)O)c2c1` (single isomer, unassigned) [Example 4-1(2), 4-{4-[(3-cyclopropyl-1H-1,2,4-triazol-1-yl)methyl]-2-({2-[3-methyl-6-(methylcarbamoyl)-1H-indol-1-yl]propanoyl}amino)phenyl}butanoic acid] yielded an IC50 of 2.5 nM.

Regarding `CNC(=O)c1ccc2c(C)cn(C(C)C(=O)Nc3cc(Cn4cc(F)cn4)ccc3CCCC(=O)O)c2c1` (single isomer, unassigned) [Example 4-8(2), 4-{4-[(4-fluoro-1H-pyrazol-1-yl)methyl]-2-({2-[3-methyl-6-(methylcarbamoyl)-1H-indol-1-yl]propanoyl}amino)phenyl}butanoic acid], half-maximal inhibition (IC50) was put at 2.7 nM.

Compound `CNC(=O)c1ccc2c(C)cn(C(C)C(=O)Nc3cc(Cn4cc(C(C)C)nn4)ccc3CCCC(=O)O)c2c1` (single isomer, unassigned) [Example 6-5(1), 4-{4-[(4-isopropyl-1H-1,2,3-triazol-1-yl)methyl]-2-({2-[3-methyl-6-(methylcarbamoyl)-1H-indol-1-yl]propanoyl}amino)phenyl}butanoic acid] gave an IC50 of 2.7 nM.

`COCCNC(=O)c1ccc2c(C)cn(C(C)C(=O)Nc3cc(Cn4cnc(C(F)(F)F)n4)ccc3CCCC(=O)O)c2c1` (single isomer, unassigned) [Example 7-1(2), 4-(2-[(2-{6-[(2-methoxyethyl)carbamoyl]-3-methyl-1H-indol-1-yl}propanoyl)amino]-4-{[3-(trifluoromethyl)-1H-1,2,4-triazol-1-yl]methyl}phenyl)butanoic acid]: inhibition was half-maximal at 3.3 nM (IC50).

Compound `CNC(=O)c1ccc2c(C)cn(C(C)C(=O)Nc3cc(Cn4cnc(C(F)(F)F)n4)ccc3CCCC(=O)O)c2c1` (single isomer, unassigned) [Example 7-3(2), 4-[2-({2-[3-methyl-6-(methylcarbamoyl)-1H-indol-1-yl]propanoyl}amino)-4-{[3-(trifluoromethyl)-1H-1,2,4-triazol-1-yl]methyl}phenyl]butanoic acid] had a half-inhibitory concentration (IC50) of 1.5 nM.

In turn, `Cc1cnn(Cc2ccc(CCCC(=O)O)c(NC(=O)C(C)n3cc(C)c4cc(C(=O)NC(C)C)ccc43)c2)c1` (single isomer, unassigned) [Example 8-9(2), 4-{2-({2-[5-(isopropylcarbamoyl)-3-methyl-1H-indol-1-yl]propanoyl}amino)-4-[(4-methyl-1H-pyrazol-1-yl)methyl]phenyl}butanoic acid] displayed an IC50 of 3.3 nM.

Take `Cc1cnn(Cc2ccc(CCCC(=O)O)c(NC(=O)C(C)n3cc(C)c4cc(C(=O)N5CCCC5)ccc43)c2)c1` (single isomer, unassigned) [Example 8-17(2), 4-{4-[(4-methyl-1H-pyrazol-1-yl)methyl]-2-({2-[3-methyl-5-(1-pyrrolidinylcarbonyl)-1H-indol-1-yl]propanoyl}amino)phenyl}butanoic acid]: the IC50 was 8.6 nM.

In the case of `CNC(=O)c1ccc2c(C3CC3)cn(C(C)C(=O)Nc3cc(Cn4cc(C)cn4)ccc3CCCC(=O)O)c2c1` (single isomer, unassigned) [Example 9-1(2), 4-{2-({2-[3-cyclopropyl-6-(methylcarbamoyl)-1H-indol-1-yl]propanoyl}amino)-4-[(4-methyl-1H-pyrazol-1-yl)methyl]phenyl}butanoic acid], the IC50 was 4.6 nM.

Regarding `COCCNC(=O)c1ccc2c(C3CC3)cn(C(C)C(=O)Nc3cc(Cn4cc(C)cn4)ccc3CCCC(=O)O)c2c1` (single isomer, unassigned) [Example 9-5(2), 4-{2-[(2-{3-cyclopropyl-6-[(2-methoxyethyl)carbamoyl]-1H-indol-1-yl}propanoyl)amino]-4-[(4-methyl-1H-pyrazol-1-yl)methyl]phenyl}butanoic acid], the IC50 worked out at 2.2 nM.

In the case of `COCCNC(=O)c1ccc2ccn(C(C)C(=O)Nc3cc(C#N)ccc3CCCC(=O)O)c2c1` (single isomer, unassigned) [Example 10-1(2), 4-{4-cyano-2-[(2-{6-[(2-methoxyethyl)carbamoyl]-1H-indol-1-yl}propanoyl)amino]phenyl}butanoic acid], the IC50 was determined as 3.7 nM.

Compound `CNC(=O)c1ccc2c(C)cn(C(C)C(=O)Nc3cc(C#N)ccc3CCCC(=O)O)c2c1` (single isomer, unassigned) [Example 11-3(2), 4-[4-cyano-2-({2-[3-methyl-6-(methylcarbamoyl)-1H-indol-1-yl]propanoyl}amino)phenyl]butanoic acid] gave an IC50 of 2.7 nM.

In turn, `Cc1cn(C(C)C(=O)Nc2cc(C#N)ccc2CCCC(=O)O)c2cc(C(=O)NC(C)(C)C)ccc12` (single isomer, unassigned) [Example 11-7(2), 4-{4-cyano-2-[(2-{3-methyl-6-[(2-methyl-2-propanyl)carbamoyl]-1H-indol-1-yl}propanoyl)amino]phenyl}butanoic acid] showed an IC50 of 1.6 nM.

`Cc1cn(C(C)C(=O)Nc2cc(C#N)ccc2CCCC(=O)O)c2cc(C(=O)NC3CCCC3)ccc12` (single isomer, unassigned) [Example 11-11(2), 4-[4-cyano-2-({2-[6-(cyclopentylcarbamoyl)-3-methyl-1H-indol-1-yl]propanoyl}amino)phenyl]butanoic acid]: the IC50 came to 2 nM.

Compound `CNC(=O)c1ccc2c(C3CC3)cn(C(C)C(=O)Nc3cc(C#N)ccc3CCCC(=O)O)c2c1` (single isomer, unassigned) [Example 11-23(2), 4-[4-cyano-2-({2-[3-cyclopropyl-6-(methylcarbamoyl)-1H-indol-1-yl]propanoyl}amino)phenyl]butanoic acid] gave a half-maximal inhibitory concentration (IC50) of 6.5 nM.

As to `COCCNC(=O)c1ccc2c(C3CC3)cn(C(C)C(=O)Nc3cc(C#N)ccc3CCCC(=O)O)c2c1` (single isomer, unassigned) [Example 11-25(2), 4-{4-cyano-2-[(2-{3-cyclopropyl-6-[(2-methoxyethyl)carbamoyl]-1H-indol-1-yl}propanoyl)amino]phenyl}butanoic acid], it took 0.57 nM to reach half-maximal inhibition (IC50).

For `COCCNC(=O)c1ccc2c(C)cn(C(C)C(=O)Nc3cc(F)ccc3CCCC(=O)O)c2c1` (single isomer, unassigned) [Example 11-30(2), 4-{4-fluoro-2-[(2-{6-[(2-methoxyethyl)carbamoyl]-3-methyl-1H-indol-1-yl}propanoyl)amino]phenyl}butanoic acid], the IC50 worked out at 12 nM.

With `CNC(=O)c1ccc2c(C)cn(C(C)C(=O)Nc3cc(Cn4cc(C)cn4)ccc3CCCC(=O)O)c2c1` (single isomer, unassigned) [Example 12-1(2), 4-{2-({2-[3-methyl-6-(methylcarbamoyl)-1H-indol-1-yl]propanoyl}amino)-4-[(4-methyl-1H-pyrazol-1-yl)methyl]phenyl}butanoic acid], the IC50 was determined as 1.6 nM.
